Assays:
[1] = biological target: cannabinoid receptor CB2 (Homo sapiens, UniProt P34972); experiment: Cannabinoid receptor CB2 activity (stated, no method); conditions: stated as finding of the invention's research; no data or method printed
[2] = tested on: intestinal flora in stressed rats; experiment: High-throughput 16s metagenomic sequencing of intestinal flora composition in CUMS model rats (cluster analysis); format: in vivo, rat; conditions: albiflorin 7 days
Procedure: (§1) We further administered the stressed model rats an albiflorin treatment for 7 consecutive days at each dose of 7 mg/k& for each treatment. 7 days later, we used metabolomics and a 16sDNA high-throughput metagenomic sequencing technology to re-evaluate the function and composition of intestinal flora in the rats. […] This was consistent with the results of analysis of flora composition.
FIG. 5 is a graph showing the cluster analysis of intestinal flora composition correlation.

[3] = tested on: intestinal flora in stressed rats; experiment: Targeted metabolomics of intestinal flora metabolism in chronic unpredictable mild stress (CUMS) model rats (PLS-DA, VIP analysis); format: in vivo, rat
Procedure: We established a chronic unpredictable mild stress (CUMS) model of rats, and used a new generation of targeted metabolomics method to study the metabolic function of intestinal flora in stressed rats.
as §1
As a positive drug, fluoxetine was continuously administered for 7 days at each dose of 10 mg/kg/d.

[4] = after 7 days of administration of albiflorin

Chain of cannabinoid receptor CB2 (P34972 whole entry): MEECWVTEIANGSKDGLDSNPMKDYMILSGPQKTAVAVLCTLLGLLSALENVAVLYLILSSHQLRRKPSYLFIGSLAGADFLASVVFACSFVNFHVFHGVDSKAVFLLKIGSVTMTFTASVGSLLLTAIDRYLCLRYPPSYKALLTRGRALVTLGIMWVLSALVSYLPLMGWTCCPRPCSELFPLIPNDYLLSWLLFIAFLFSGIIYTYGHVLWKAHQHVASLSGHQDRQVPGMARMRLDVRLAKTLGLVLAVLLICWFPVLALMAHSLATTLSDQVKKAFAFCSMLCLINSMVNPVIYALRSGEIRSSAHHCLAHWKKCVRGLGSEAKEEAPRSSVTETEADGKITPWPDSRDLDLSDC

Row | Compound | Action at cannabinoid receptor CB2 [1] | Amount of probiotic firmicutes, especially lactic acid bacteria, compared with the stressed rat model group [2] | Intestinal flora composition versus blank group (Control), cluster analysis [2] | Amounts of cholic acid, amino acids and vitamins (intestinal flora metabolites) compared with the depression group [3, 4] | Overall metabolism of intestinal flora compared with the depression group (VIP analysis) [3, 4] | Metabolism of intestinal flora relative to the normal group (PLS-DA multiple comparative analysis of metabolomics data) ([3]; albiflorin 7 consecutive days, 7 mg/k&, FIG. 1) | Metabolism of rat intestinal flora relative to the normal state (multivariable PLS-DA analysis) ([3]; fluoxetine 7 days, 10 mg/kg/d, FIG. 6)
1 | C[C@]12C[C@@H](O)[C@@H]3C[C@@]1(O[C@@H]1O[C@H](CO)[C@@H](O)[C@H](O)[C@H]1O)[C@@]3(COC(=O)c1ccccc1)C(=O)O2 [albiflorin] | agonist | significantly increased | no statistical difference (P>0.05) | increased | significantly improved | almost completely overlapped with the normal group | –
2 | CNCCC(Oc1ccc(C(F)(F)F)cc1)c1ccccc1 (stereo not shown) [fluoxetine, reference compound] | – | – | – | – | – | – | deviated the metabolism of rat intestinal flora more from the normal state

Reference: patent US11020415B2, “Use of albiflorin in preparation of products for improving function of intestinal flora system” (priority 2016, dated 2021)
